# Patent publication US11629121B2, “Benzylideneacetone derivative and use thereof” (KORPHARM CO., LTD., priority 2017, dated 2023)
# Legend:
# [1] = system: AGS human gastric cancer cell line; assay: MTT assay, cancer cells AGS; assay type: cell-based; settings: 48 hours
# Text: (§1) The cytotoxicity against normal cells and cancer cells was confirmed using the MTT assay for the novel compounds KP2 to KP8 prepared in Example 1.
# (§2) MTT assay method is as follows:
# (§3) Normal cells (RAW264.7 rat macrophage cell line (osteoblast progenitor cell) and NIH3T3 mouse fibroblast line) and cancer cells (AGS human gastric cancer cell line, A549 human lung cancer cell line, HepG2 human liver cancer cell line, HCT116 human colon cancer cell line, PC3 human prostate cancer Cell line, Caki-1 human kidney cancer cell line, T24 human bladder cancer cell line, HT1080 human fibrosarcoma cell line, B16F10 mouse melanoma cell line) were cultured in 5% CO2 in 96-well plates containing DMEM with 10% FBS (fetal bovine serum). After incubation, KP2 to KP8 and controls (osmundacetone and 4-hydroxybenzalacetone) were added to the cell medium and incubated for 48 hours. Thereafter, 100 μl of MTT (0.5 mg/mL phosphate buffered saline) was added, followed by incubation for 2 hours. 100 μl of DMSO was added to each well, followed by incubation for 10 minutes, and the absorbance was measured at 550 nm using a microplate reader (SPCTRA MAX 340PC, Molecular Devices, USA). Absorbance is calculated by the formula below as an indicator of the number of cells that survived, and reproducibility was confirmed by three experiments.
# (§4) The rate of cell proliferation (%)=OD550(sample)/OD550(control)
# [2] = system: osteoclast differentiation from bone marrow cells (RANKL and M-CSF); assay: TRAP assay, osteoclast differentiation and proliferation; assay type: cell-based, C57BL/6 mice; settings: Osteoclast; TRAP-positive multinucleated cells, mouse bone marrow cells, 6-7 days; read-out: osteoclast differentiation inhibitory activity IC50
# Protocol: The specific method of the TRAP assay is as follows:
# The tibia and femur were aseptically excised from 6 to 8 weeks old male C57BL/6 mice, and bone marrow cells were collected aseptically with a syringe (21G, Korea Green Cross). Bone marrow cells were suspended in 500 μl of -MEM medium (Gibco BRL Co.) containing sodium bicarbonate (2.0 g/L), streptomycin (100 mg/L) and penicillin ([…]), and aliquoted into a 48-well plate, and assay was carried out with triplicate. The progenitor cells of osteoclasts, monocytes, were isolated and treated with RANKL and M-CSF, which are differentiation promoters, to differentiate into osteoclasts within 5-7 days.
# 1) Sample preparation: KP2 to KP8 (0.5 μM, 1 μM, 5 μM or 10 μM), Fosamax (0.5 μM, 1 μM, 5 μM, or 10 μM) and the like were dissolved in DMSO (dimethylsulfoxide) or sterile distilled water at appropriate concentrations, respectively.
# 2) Sample administration: The Samples were continuously administered to the medium at 1:20 (v/v; 25 μL of sample per 500 μL of medium) from the first day of culture of bone marrow cells, and the medium was replaced at 3 days intervals.
# 3) Osteoclast differentiation measurement: Osteoclasts were defined as TRAP-positive multinucleated cells stained with TRAP. […] The reaction reagents were stored in the refrigerator until use.
# Bone marrow cells were cultured in a medium containing differentiation factors for 6-7 days, and then the medium was removed, washed with PBS, and fixed in PBS containing 10% formalin for 2-5 minutes. After fixed for 1 minute with a 1:1 mixture of ethanol and acetone, and dried. The fixed cells were treated with TRAP staining solution for 60 minutes at 37° C. with light blocking, washed with PBS, and then stained with Hematoxylin.
# Among the TRAP-positive cells in the microscope field, cells with two or more nuclei were determined as osteoclasts and the number of cells was measured.
# [3] = system: PC3 human prostate cancer Cell line; assay: MTT assay, cancer cells PC3; assay type: cell-based; settings: 48 hours
# Text: as §1, §2, §3, §4
# [4] = system: NIH3T3 mouse fibroblast line; assay: MTT assay, normal cells NIH3T3; assay type: cell-based; settings: for LD50 Normal cells NTH3T3: mouse, 48 h
# Text: as §1, §2, §3, §4
# [5] = system: A549 human lung cancer cell line; assay: MTT assay, cancer cells A549; assay type: cell-based; settings: for LD63 Cancer cell A549: MTT assay, 48 hours
# Text: as §1, §2, §3, §4
# [6] = system: RAW264.7 rat macrophage cell line; assay: MTT assay, normal cells RAW264.7; assay type: cell-based; settings: rat, 48 h
# Text: as §1, §2, §3, §4
# [7] = system: B16F10 mouse melanoma cell line; assay: MTT assay, cancer cells B16F10; assay type: cell-based; settings: 48 hours, H16F10
# Text: as §1, §2, §3, §4
# [8] = system: Caki-1 human kidney cancer cell line; assay: MTT assay, cancer cells Caki-1; assay type: cell-based; settings: 48 hours
# Text: as §1, §2, §3, §4
# [9] = system: osteoblasts (mouse MC3T3-E1); assay: ALP (Alkaline phosphatase) assay, osteoblast activity; assay type: cell-based; settings: for ALP activity / osteoblast activation versus control: 10 μM and 50 μM; for % Activation of ALP activity: MC3T3-E1, 14 days, percentage against control
# Protocol: Effect of KP4 to KP6 on proliferation and differentiation of osteoblast were confirmed using ALP (Alkaline phosphatase) assay, a method for measuring osteoblast activity.
# Alkaline phosphatase (ALP), which is present in the cell membranes of osteoblasts, is known as a marker of osteoblast activity and is a regulator of inorganic phosphate transport, cell division or differentiation during calcification. Therefore, ALP activity was measured to determine the effect of the compounds of the present invention on the activity of osteoblasts. ALP activity was indirectly calculated by measuring the amount of p-nitrophenol, which is produced from hydrolysis of p-nitrophenyl phosphate (pNPP, Sigma, St. Louis, Mo., USA) in which ALP act as a catalyst, using a microplate reader at 405 nm wavelength.
# Specifically, osteoblasts (mouse MC3T3-E1) were aliquoted into a 96-well plate (3×10^3 cells/100 μL/well) with α-MEM medium containing ascorbic acid (50 μg/mL) and 10 mM β-glycerophosphate, a differentiation factors of osteoblast. Then, KP4 to KP6 of the present invention, and osmundacetone were added at a final concentration of 10 μM and 50 μM, followed by changing medium every 72 hours and incubating for 14 days. After 14 days, the culture medium was removed from each well, washed three times with PBS, lysed with 0.2% Nonidet P-40/10 mmol/L MgCl2, and then treated ultrasonic wave with sosonifier cell disrupter (Model W-380, Heat Systems-Ultrasonics Inc., Farmingdale, N.Y.) for 3 minutes. The cell lysate was centrifuged at 1500 g for 10 minutes and the supernatant was collected to measure ALP activity. To account for changes in ALP activity according to cell number differences, total protein levels were measured using bicinchoninic acid (BCA) protein assay kit with bovine serum albumin as the standard protein, and enzyme activity was expressed as a percentage against the control group without the compound treatment.
# [10] = system: T24 human bladder cancer cell line; assay: MTT assay, cancer cells T24; assay type: cell-based; settings: for LD63 Cancer cell T24: MTT assay, 48 hours
# Text: as §1, §2, §3, §4
# [11] = system: HCT116 human colon cancer cell line; assay: MTT assay, cancer cells HCT116; assay type: cell-based; settings: for LD63 Cancer cell HCT116: MTT assay, 48 hours; for inhibitory activity better than Osmundacetone: HP116 colorectal cancer cells
# Text: as §1, §2, §3, §4
# [12] = system: HT1080 human fibrosarcoma cell line; assay: MTT assay, cancer cells HT1080; assay type: cell-based; settings: 48 hours
# Text: as §1, §2, §3, §4
# [13] = system: HepG2 human liver cancer cell line; assay: MTT assay, cancer cells HepG2; assay type: cell-based; settings: for cancer cell inhibitory activity versus Osmundacetone: HepG2 hepatocellular carcinoma cells; for LD63 Cancer cell HepG2: MTT assay, 48 hours
# Text: as §1, §2, §3, §4
SMILES,LD63 Cancer cell AGS [1] [µM],IC50 [2] [µM],LD63 Cancer cell PC3 [3],LD50 Normal cells NTH3T3 [4] [µM],LD63 Cancer cell A549 [5] [µM],LD50 Normal cells RAW264.7 [6] [µM],"Cytotoxicity, B16F10 cells [7]",LD63 Cancer cell Caki-1 [8] [µM],ALP activity / osteoblast activation versus control [9],% Activation of ALP activity ([9]; 10 μM) [%],% Activation of ALP activity ([9]; 50 μM) [%],LD63 Cancer cell T24 [10],LD63 Cancer cell HCT116 [11],LD63 Cancer cell HT1080 [12],inhibitory activity better than Osmundacetone [11] [times],LD63 Cancer cell HepG2 [13] [µM],also measured
"COc1ccc(/C=C/C(C)=O)cc1O [KP5, (E)-4-(3-hydroxy-4-methoxyphenyl)-3-buten-2-one]",181 ± 15,1,291 ± 5.7 µM,>5000,1890 ± 210,261 ± 79,441 ± 58 µM,409 ± 11,higher ALP activity,103 ± 1.1,175 ± 0.3,>5000 µM,491 ± 72 µM,381 ± 49 µM,,,
"CC(=O)/C=C/c1ccc(C)c(O)c1 [KP2, (E)-4-(3-hydroxy-4-methylphenyl)but-3-en-2-one]",209 ± 5.9,,309 ± 3.1 µM,688 ± 12,471 ± 24,395 ± 22,298 ± 27 µM,387 ± 57,,,,1120 ± 67 µM,380 ± 32 µM,256 ± 14 µM,2,339 ± 79,cytotoxicity to normal cells [4]: weak cytotoxicity; cancer cell inhibitory activity versus Osmundacetone ([5]; A549 lung cancer cells): significantly better cancer cell inhibitory activity; cancer cell inhibitory activity versus Osmundacetone [13]: significantly better cancer cell inhibitory activity
"COc1cc(/C=C/C(C)=O)ccc1O [KP4, (E)-4-(4-hydroxy-3-methoxyphenyl)-3-buten-2-one]",417 ± 15,,223 ± 85 µM,>5000,3010 ± 38,399 ± 42,423 ± 39 µM,506 ± 13,higher ALP activity,113 ± 2.9,422 ± 6.9,>5000 µM,495 ± 13 µM,">5,000 μM",,,ALP activity increase compared with the control group ([9]; 50 μM): ≥ 400%; osteoblast activity compared to osmundacetone treat group ([9]; 50 μM): 1.5 times
"Cc1ccc(/C=C/C(N)=O)cc1O [KP7, (E)-3-(3-hydroxy-4-methylphenyl)acrylamide]",329 ± 14,,394 ± 140 µM,>5000,989 ± 50,>5000,1210 ± 110 µM,361 ± 16,,,,1040 ± 360 µM,315 ± 19 µM,309 ± 10 µM,2,379 ± 38,cancer cell inhibitory activity versus Osmundacetone [13]: significantly better cancer cell inhibitory activity
"NC(=O)/C=C/c1ccc(F)c(O)c1 [KP8, (E)-3-(4-fluoro-3-hydroxyphenyl)acrylamide]",569 ± 4.8,,">5,000 μM",>5000,935 ± 10,>5000,">5,000 μM",2990 ± 58,,,,203 ± 69 µM,">5,000 μM",1090 ± 19 µM,,1280 ± 390,inhibitory activity ([10]; T24 bladder cancer cells): particularly better inhibitory activity
"CC(=O)C=Cc1ccc(O)cc1 [4-Hydroxybenzalacetone, reference compound]",,,,201 ± 10,,294 ± 45,,,,,,,,,,,
"CC(=O)/C=C/c1ccc(F)c(O)c1 [KP3, (E)-4-(4-fluoro-3-hydroxyphenyl)but-3-en-2-one]",239 ± 14,,387 ± 48 µM,>5000,1090 ± 46,503 ± 57,278 ± 15 µM,408 ± 12,,,,">5,000 μM",389 ± 18 µM,379 ± 10 µM,2,612 ± 95,
"NCCCC(O)(P(=O)(O)O)P(=O)(O)O [Fosamax, reference compound]",,4,,,,,,,,,,,,,,,
"CC(=O)/C=C/c1ccc(O)c(F)c1 [KP6, (E)-4-(3-fluoro-4-hydroxyphenyl)-3-buten-2-one]",336 ± 3.9,6,205 ± 13 µM,>5000,901 ± 28,1110 ± 48,421 ± 41 µM,449 ± 40,no activity on activating osteoblast,102 ± 0.2,100 ± 0.8,3610 ± 130 µM,490 ± 38 µM,">5,000 μM",,,
